Where “and” joins values, the source holds several entries; their conditions need not be identical. Equal values may be shown once. Inconclusive results and toxic doses are left out.
System: L1210 leukemia ip in BDF1 mice, survival T/C
Experiment: NCI In Vivo Anticancer Drug Screen. Data for tumor model L1210 Leukemia (intraperitoneal) in B6D2F1 (BDF1) mice
Settings: endpoint: mean survival time, higher = longer survival
Outline: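 Ratio derived from survival: compound-dosed mice over vehicle-dosed mice, all bearing a transplantable tumor.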

[1] = dose: 100.0 mg/kg/injection, schedule: Q01DX009 (ip), vehicle: Klucel (hydroxypropylcellulose) (HPC)
[2] = dose: 200.0 mg/kg/injection, schedule: Q01DX009 (ip), vehicle: Klucel (hydroxypropylcellulose) (HPC)
[3] = dose: 400.0 mg/kg/injection, schedule: Q01DX009 (ip), vehicle: Klucel (hydroxypropylcellulose) (HPC)
[4] = dose: 100.0 mg/kg/injection, schedule: Q04DX003 (ip), vehicle: saline with Tween-80
[5] = dose: 200.0 mg/kg/injection, schedule: Q04DX003 (ip), vehicle: saline with Tween-80
[6] = dose: 400.0 mg/kg/injection, schedule: Q04DX003 (ip), vehicle: saline with Tween-80

Compound: CCCSCCN=C(N)C(N)=NCCSCCC
- T/C (dose: 25.0 mg/kg/injection, schedule: Q04DX002 (ip), vehicle: saline with Tween-80): 88 % of control
- T/C (dose: 50.0 mg/kg/injection, schedule: Q04DX002 (ip), vehicle: saline with Tween-80): 95 % of control
- T/C (dose: 100.0 mg/kg/injection, schedule: Q04DX002 (ip), vehicle: saline with Tween-80): 97 % of control and 101 % of control

Compound: CCN(CC)C(=O)N(CC)C(=O)CN(C)C
- T/C (dose: 100.0 mg/kg/injection, schedule: Q04DX003 (ip), vehicle: saline): 102 % of control
- T/C (dose: 200.0 mg/kg/injection, schedule: Q04DX003 (ip), vehicle: saline): 102 % of control
- T/C (dose: 400.0 mg/kg/injection, schedule: Q04DX003 (ip), vehicle: saline): 96 % of control

Compound: NC1=NC(CCc2ccccc2)N(c2cccc(Cl)c2)C(N)=N1 (stereo unspecified)
- T/C (dose: 6.25 mg/kg/injection, schedule: Q01DX001 (ip), vehicle: saline): 104 % of control
- T/C (dose: 12.5 mg/kg/injection, schedule: Q01DX001 (ip), vehicle: saline): 98 % of control
- T/C (dose: 25.0 mg/kg/injection, schedule: Q01DX001 (ip), vehicle: saline): 106 % of control

Compound: COc1cc(S(=O)(=O)F)ccc1NC(=O)/C=C/c1ccc([N+](=O)[O-])cc1
- T/C (dose: 100.0 mg/kg/injection, schedule: Q01DX001 (ip), vehicle: saline): 103 % of control
- T/C (dose: 200.0 mg/kg/injection, schedule: Q01DX001 (ip), vehicle: saline): 94 % of control
- T/C (dose: 400.0 mg/kg/injection, schedule: Q01DX001 (ip), vehicle: saline): 100 % of control

Compound: CCCCS(=O)(=O)OCCCCOS(=O)(=O)CCCC
- T/C (dose: 240.0 mg/kg/injection, schedule: Q01DX Z (ip), vehicle: saline): 100 % of control
- T/C (dose: 360.0 mg/kg/injection, schedule: Q01DX Z (ip), vehicle: saline): 115 % of control
- T/C (dose: 810.0 mg/kg/injection, schedule: Q01DX Z (ip), vehicle: saline): 90 % of control

Compound: CCCCCCCC(C(=O)O)C(CCCCCCC)C(=O)O (stereo unspecified)
- T/C (dose: 6.0 mg/kg/injection, schedule: Q01DX009 (ip), vehicle: saline): 89 % of control
- T/C (dose: 12.0 mg/kg/injection, schedule: Q01DX009 (ip), vehicle: saline): 96 % of control
- T/C (dose: 12.0 mg/kg/injection, schedule: Q04DX003 (ip), vehicle: saline): 98 % of control
- T/C (dose: 25.0 mg/kg/injection, schedule: Q04DX003 (ip), vehicle: saline): 104 % of control

Compound: Cc1cc(C)c(S(=O)(=O)Nc2cc(C)ccc2C)c(C)c1
- T/C [1]: 100 % of control
- T/C [2]: 96 % of control
- T/C [3]: 100 % of control

Compound: CCOC(=O)CN1C(=O)NC(CC)(CC)C1=O
- T/C (dose: 100.0 mg/kg/injection, schedule: Q01DX009 (ip), vehicle: saline): 96 % of control
- T/C (dose: 100.0 mg/kg/injection, schedule: Q04DX003 (ip), vehicle: acetone): 104 % of control
- T/C (dose: 200.0 mg/kg/injection, schedule: Q01DX009 (ip), vehicle: saline): 94 % of control
- T/C (dose: 200.0 mg/kg/injection, schedule: Q04DX003 (ip), vehicle: acetone): 107 % of control
- T/C (dose: 400.0 mg/kg/injection, schedule: Q01DX009 (ip), vehicle: saline): 105 % of control
- T/C (dose: 400.0 mg/kg/injection, schedule: Q04DX003 (ip), vehicle: acetone): 102 % of control

Compound: CCNC(=S)Nc1cccc(C)c1
- T/C (dose: 25.0 mg/kg/injection, schedule: Q04DX002 (ip), vehicle: gum acacia): 102 % of control
- T/C (dose: 50.0 mg/kg/injection, schedule: Q04DX002 (ip), vehicle: gum acacia): 97 % of control
- T/C (dose: 100.0 mg/kg/injection, schedule: Q04DX002 (ip), vehicle: gum acacia): 97 % of control
- T/C (dose: 200.0 mg/kg/injection, schedule: Q04DX002 (ip), vehicle: gum acacia): 89 % of control

Compound: CC(C)=CCC1=CC(=O)c2ccccc2C1=O
- T/C (dose: 12.0 mg/kg/injection, schedule: Q01DX009 (ip), vehicle: water): 97 % of control
- T/C (dose: 25.0 mg/kg/injection, schedule: Q01DX009 (ip), vehicle: water): 102 % of control
- T/C (dose: 50.0 mg/kg/injection, schedule: Q01DX001 (ip), vehicle: water): 96 % of control
- T/C (dose: 50.0 mg/kg/injection, schedule: Q01DX009 (ip), vehicle: water): 96 % of control
- T/C (dose: 100.0 mg/kg/injection, schedule: Q01DX001 (ip), vehicle: water): 102 % of control
- T/C (dose: 100.0 mg/kg/injection, schedule: Q01DX009 (ip), vehicle: water): 95 % of control
- T/C (dose: 200.0 mg/kg/injection, schedule: Q01DX001 (ip), vehicle: water): 105 % of control
- T/C (dose: 400.0 mg/kg/injection, schedule: Q01DX001 (ip), vehicle: water): 92 % of control

Compound: CCCCCCCCN(C)N=Nc1ccc(Cl)cc1C(=O)O
- T/C (dose: 150.0 mg/kg/injection, schedule: Q01DX009 (ip), vehicle: Klucel (hydroxypropylcellulose) (HPC)): 117 % of control

Compound: C=CCOc1c(Cl)c(Cl)c(Cl)c(Cl)c1Cl
- T/C (dose: 100.0 mg/kg/injection, schedule: Q01DX009 (ip), vehicle: saline sonified): 96 % of control
- T/C (dose: 100.0 mg/kg/injection, schedule: Q04DX003 (ip), vehicle: Klucel (hydroxypropylcellulose) (HPC)): 96 % of control
- T/C (dose: 200.0 mg/kg/injection, schedule: Q01DX009 (ip), vehicle: saline sonified): 91 % of control
- T/C (dose: 200.0 mg/kg/injection, schedule: Q04DX003 (ip), vehicle: Klucel (hydroxypropylcellulose) (HPC)): 96 % of control
- T/C (dose: 400.0 mg/kg/injection, schedule: Q01DX009 (ip), vehicle: saline sonified): 97 % of control
- T/C (dose: 400.0 mg/kg/injection, schedule: Q04DX003 (ip), vehicle: Klucel (hydroxypropylcellulose) (HPC)): 96 % of control

Compound: CCC(N)c1ccc2c3c(cccc13)CC2 (stereo unspecified)
- T/C (dose: 100.0 mg/kg/injection, schedule: Q01DX009 (ip), vehicle: saline with Tween-80): 88 % of control
- T/C [4]: 93 % of control
- T/C (dose: 200.0 mg/kg/injection, schedule: Q01DX009 (ip), vehicle: saline with Tween-80): 90 % of control
- T/C [5]: 90 % of control
- T/C (dose: 400.0 mg/kg/injection, schedule: Q01DX009 (ip), vehicle: saline with Tween-80): 93 % of control
- T/C [6]: 90 % of control

Compound: O=C(Nc1cccc(C2=NCCN2)c1)Nc1cc(C(=O)Nc2ccc(C3=NCCN3)cc2)ccc1C(=O)Nc1ccc(C2=NCCN2)cc1
- T/C (dose: 1.88 mg/kg/injection, schedule: Q01DX Z (ip), vehicle: saline): 121 % of control
- T/C (dose: 3.75 mg/kg/injection, schedule: Q01DX Z (ip), vehicle: saline): 123 % of control
- T/C (dose: 3.75 mg/kg/injection, schedule: Q01DX Z (oral), vehicle: saline): 98 % of control
- T/C (dose: 7.5 mg/kg/injection, schedule: Q01DX Z (ip), vehicle: saline): 161 % of control
- T/C (dose: 7.5 mg/kg/injection, schedule: Q01DX Z (oral), vehicle: saline): 104 % of control
- T/C (dose: 15.0 mg/kg/injection, schedule: Q01DX Z (oral), vehicle: saline): 103 % of control
- T/C (dose: 30.0 mg/kg/injection, schedule: Q01DX Z (oral), vehicle: saline): 101 % of control
- T/C (dose: 62.5 mg/kg/injection, schedule: Q01DX010 (oral), vehicle: saline): 101 % of control
- T/C (dose: 125.0 mg/kg/injection, schedule: Q01DX010 (oral), vehicle: saline): 108 % of control
- T/C (dose: 250.0 mg/kg/injection, schedule: Q01DX010 (oral), vehicle: saline): 105 % of control

Compound: CCCC[P+](CCCC)(CCCC)C(C)C
- T/C (dose: 12.0 mg/kg/injection, schedule: Q01DX009 (ip), vehicle: saline with Tween-80): 97 % of control
- T/C (dose: 25.0 mg/kg/injection, schedule: Q01DX009 (ip), vehicle: saline with Tween-80): 97 % of control
- T/C (dose: 25.0 mg/kg/injection, schedule: Q04DX003 (ip), vehicle: saline with Tween-80): 101 % of control
- T/C (dose: 50.0 mg/kg/injection, schedule: Q04DX003 (ip), vehicle: saline with Tween-80): 99 % of control

Compound: c1ccc(C2OC2(c2ccccc2)c2ccccc2)cc1 (stereo unspecified)
- T/C [1]: 95 % of control
- T/C [4]: 101 % of control
- T/C [2]: 102 % of control
- T/C [5]: 92 % of control
- T/C [3]: 102 % of control
- T/C [6]: 95 % of control

Compound: CC1=CC(=O)C2=C(C)C[C@H](O)[C@@H]3[C@H](OC(=O)[C@H]3C)[C@@H]12
- T/C (dose: 100.0 mg/kg/injection, schedule: Q04DX002 (ip), vehicle: saline): 100 % of control
- T/C (dose: 200.0 mg/kg/injection, schedule: Q04DX002 (ip), vehicle: saline): 89 % of control
- T/C (dose: 400.0 mg/kg/injection, schedule: Q04DX002 (ip), vehicle: saline): 95 % of control

Source: PubChem BioAssay AID248 (DTP/NCI, 2004)
